# Assay results reported in article PMC6514978, “Synthesis, Antibacterial Activities, Mode of Action and Acute Toxicity Studies of New Oxazolidinone-Fluoroquinolone Hybrids” (Molecules, 2019).
# Columns and labels:
# [1] = system: S. pneumoniae (13) clinical isolates; assay: Susceptibility of clinical isolates (MIC); assay type: cell-based, Streptococcus pneumoniae; conditions: for Cumulative % of strains inhibited at MIC / No. of strains inhibited at MIC: S. pneumoniae (13)
# Outline: (§1)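 Triplicate MIC determinations by CLSI broth microdilution, with ATCC quality control strains alongside. Growth medium depended on the species: cation-adjusted MHB, with or without 3%–5% lysed horse blood, or Haemophilus Test Medium. Final inoculum 5 × 10^5 CFU/mL; read at 16–24 h, 35 °C.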
# [2] = system: E. faecium (47) clinical isolates; assay: Susceptibility of clinical isolates (MIC); assay type: cell-based, Enterococcus faecium; conditions: for Cumulative % of strains inhibited at MIC / No. of strains inhibited at MIC: E. faecium (47)
# Outline: as §1
# [3] = system: S. aureus (46) clinical isolates; assay: Susceptibility of clinical isolates (MIC); assay type: cell-based, Staphylococcus aureus; conditions: for Cumulative % of strains inhibited at MIC / No. of strains inhibited at MIC: S. aureus (46)
# Outline: as §1
# E. coli (ATCC25922) = assay: MIC, broth microdilution (CLSI), standard strain; assay type: cell-based; conditions: Escherichia coli; E. coli (ATCC25922); read-out: MIC
# Text: (§2) 6 standard strains and 3 clinical isolates were used to the preliminary evaluation of in vitro antibacterial activities of oxazolidinone-fluoroquinolone hybrids. For the further evaluation of hybrids OBP-4 and OBP-5, 263 clinical isolates including S. aureus (46), S. haemolyticus(32), S. epidermidis (10), E. faecalis (72), E. faecium (47), S. pneumoniae (13), H. parasuis (34), S. suis (9), and 8 resistant strains including MRSA, MRSE, CIP-resistant S. aureus and S. haemolyticus, VAN and quinolone-resistant S. pneumoniae, LZD-resistant E. faecalis, LZD/VAN and quinolone-resistant E. faecium were collected and tested.
# (§3) Susceptibility testing of oxazolidinone-fluoroquinolone hybrids against various bacteria was performed by the broth microdilution method as outlined by the Clinical and Laboratory Standards Institute (CLSI). Three types of media, including cation-adjusted Mueller Hinton broth, Haemophilus Test Medium and cation-adjusted Mueller Hinton broth that contained 3%–5% lysed horse blood, were used to culture the corresponding bacteria. All compounds including comparator drugs were dissolved in an appropriate solvent at a concentration of 2.048 mg/mL and then serially diluted two-fold to provide the required concentrations. A final inoculum of 5 × 10^5 CFU/mL was used and plates were read after incubation for 16–24 h at 35 °C. […] Standard quality control strains (ATCC) were included throughout. Each determination was repeated in triplicate.
# E. faecalis (ATCC29212) = assay: MIC, broth microdilution (CLSI), standard strain; assay type: cell-based; conditions: Enterococcus faecalis; E. faecalis (ATCC29212); read-out: MIC
# Text: as §2, §3
# S. aureus (ATCC29213) = assay: MIC, broth microdilution (CLSI), standard strain; assay type: cell-based; conditions: Staphylococcus aureus
# Text: as §2, §3
# [4] = system: S. pneumoniae (ATCC49619); assay: MIC, broth microdilution (CLSI), standard strain; assay type: cell-based; conditions: Streptococcus pneumoniae
# Text: as §2, §3
# [5] = system: P. Aeruginosa (ATCC27853); assay: MIC, broth microdilution (CLSI), standard strain; assay type: cell-based; conditions: Pseudomonas aeruginosa; P. Aeruginosa (ATCC27853); read-out: MIC
# Text: as §2, §3
# [6] = system: H. influenzae (ATCC49247); assay: MIC, broth microdilution (CLSI), standard strain; assay type: cell-based; conditions: Haemophilus influenzae
# Text: as §2, §3
# [7] = system: LZD-resistant E. faecalis; assay: microbe, parasite or virus in culture; assay type: cell-based; conditions: Enterococcus faecalis
# Outline: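 CLSI broth microdilution in cation-adjusted Mueller Hinton broth, Haemophilus Test Medium or MHB with 3–5% lysed horse blood, according to organism. The final inoculum was 5 × 10^5 CFU/mL and plates were read after 16–24 h at 35 °C. Determinations were run in triplicate with ATCC QC strains.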
# CIP-resistant S. aureus = assay: MIC against drug-resistant strain; assay type: cell-based; conditions: Staphylococcus aureus; S. aureus, CIP-resistant; read-out: MIC
# Outline: as §1
# [8] = system: CIP-resistant S. haemolyticus; assay: MIC against drug-resistant strain; assay type: cell-based; conditions: Staphylococcus haemolyticus; S. haemolyticus, CIP-resistant; read-out: MIC
# Outline: as §1
# [9] = system: LZD and quinolone-resistant E. faecium; assay: MIC against drug-resistant strain; assay type: cell-based; conditions: Enterococcus faecium; E. faecium, LZD and quinolone-resistant; read-out: MIC
# Outline: as §1
# [10] = system: VAN and quinolone-resistant E. faecium; assay: MIC against drug-resistant strain; assay type: cell-based; conditions: Enterococcus faecium; E. faecium, VAN and quinolone-resistant; read-out: MIC
# Outline: as §1
# MRSA = assay: MIC against drug-resistant strain; assay type: cell-based; conditions: Staphylococcus aureus, read-out: MIC
# Outline: as §1
# [11] = system: E. faecalis (72) clinical isolates; assay: Susceptibility of clinical isolates (MIC); assay type: cell-based, Enterococcus faecalis; conditions: for Cumulative % of strains inhibited at MIC / No. of strains inhibited at MIC: E. faecalis (72)
# Experimental: as §3, with “All compounds including comparator drugs were dissolved in an appropriate solvent at a concentration of 2.048 mg/mL and then serially diluted two-fold to provide the required concentrations.” left out
# [12] = system: S. agalactiae^R (13B317), levofloxacin-resistant S. agalactiae; assay: MIC, broth microdilution (CLSI), clinical isolate; assay type: cell-based; conditions: Streptococcus agalactiae; levofloxacin-resistant S. agalactiae (13B317)
# Text: as §2, §3
# MRSA (13B262) = assay: MIC, broth microdilution (CLSI), clinical isolate; assay type: cell-based; conditions: Staphylococcus aureus
# Text: as §2, §3
# [13] = system: H. parasuis (34) clinical isolates; assay: Susceptibility of clinical isolates (MIC); assay type: cell-based, Haemophilus parasuis; conditions: for Cumulative % of strains inhibited at MIC / No. of strains inhibited at MIC: H. parasuis (34)
# Outline: as §1
# [14] = Enterococcus faecalis, E. faecalis, 72 clinical isolates
smiles,measurement,setting,value
CC1Sc2c(C(=O)O)c(=O)c3cc(F)c(N4CCC(O)(COc5ccc(N6C[C@H](CO)OC6=O)cc5F)CC4)cc3n21 (stereo partly drawn) [OBP-5],Cumulative % of strains inhibited at MIC,[1]; MIC 0.125 µg/mL,84.6%
same,No. of strains inhibited at MIC,[1]; MIC 0.125 µg/mL,4
same,Cumulative % of strains inhibited at MIC,[1]; MIC […],100.0%
same,No. of strains inhibited at MIC,[1]; MIC […],2
same,Cumulative % of strains inhibited at MIC,[1]; MIC ≤[…],53.8%
same,No. of strains inhibited at MIC,[1]; MIC ≤[…],7
same,MIC Range,"[1]; S. pneumoniae, 13 clinical isolates",≤0.0625 to 0.25 µg/mL
same,MIC50,"[1]; Streptococcus pneumoniae, S. pneumoniae, 13 clinical isolates, read-out: MIC50",≤ 0.0625 µg/mL
same,MIC90,"[1]; Streptococcus pneumoniae, S. pneumoniae, 13 clinical isolates, read-out: MIC90",0.25 µg/mL
same,Cumulative % of strains inhibited at MIC,[2]; MIC 0.125 µg/mL,21.3%
same,No. of strains inhibited at MIC,[2]; MIC 0.125 µg/mL,7
same,Cumulative % of strains inhibited at MIC,[2]; MIC 0.5 µg/mL,97.9%
same,No. of strains inhibited at MIC,[2]; MIC 0.5 µg/mL,3
same,Cumulative % of strains inhibited at MIC,[2]; MIC 1 µg/mL,100.0%
same,No. of strains inhibited at MIC,[2]; MIC 1 µg/mL,1
same,Cumulative % of strains inhibited at MIC,[2]; MIC […],91.5%
same,No. of strains inhibited at MIC,[2]; MIC […],33
same,Cumulative % of strains inhibited at MIC,[2]; MIC ≤[…],6.4%
same,No. of strains inhibited at MIC,[2]; MIC ≤[…],3
same,fold higher activity than comparator agents,[2]; E. faecium clinical isolates,16- to 128 fold
same,MIC Range,"[2]; E. faecium, 47 clinical isolates",≤0.0625 to 1 µg/mL
same,MIC50,"[2]; Enterococcus faecium, E. faecium, 47 clinical isolates, read-out: MIC50",0.25 µg/mL
same,MIC90,"[2]; Enterococcus faecium, E. faecium, 47 clinical isolates, read-out: MIC90",0.25 µg/mL
same,Cumulative % of strains inhibited at MIC,[3]; MIC 0.125 µg/mL,97.8%
same,No. of strains inhibited at MIC,[3]; MIC 0.125 µg/mL,3
same,Cumulative % of strains inhibited at MIC,[3]; MIC […],100.0%
same,No. of strains inhibited at MIC,[3]; MIC […],1
same,Cumulative % of strains inhibited at MIC,[3]; MIC ≤[…],91.3%
same,No. of strains inhibited at MIC,[3]; MIC ≤[…],42
same,MIC50,"[3]; Staphylococcus aureus, S. aureus, 46 clinical isolates, read-out: MIC50",≤ 0.0625 µg/mL
same,MIC90,"[3]; Staphylococcus aureus, S. aureus, 46 clinical isolates, read-out: MIC90",≤ 0.0625 µg/mL
same,MIC,"[3]; Staphylococcus aureus, S. aureus, 46 clinical isolates, read-out: MIC Range",0.0625 to 0.25 µg/mL
same,MIC,E. coli (ATCC25922),4 µg/mL
same,MIC,E. faecalis (ATCC29212),1 µg/mL
same,MIC,S. aureus (ATCC29213),0.25 µg/mL
same,MIC,[4],0.062 µg/mL
same,MIC,[5],64 µg/mL
same,MIC,[6],0.25 µg/mL
same,MIC,[7],0.25 µg/mL
same,MIC,CIP-resistant S. aureus,≤ 0.0625 µg/mL
same,MIC,[8],≤ 0.0625 µg/mL
same,MIC,[9],0.125 µg/mL
same,MIC,[10],0.25 µg/mL
same,MIC,MRSA,0.125 µg/mL
same,Cumulative % of strains inhibited at MIC,[11]; MIC 0.125 µg/mL,91.7%
same,No. of strains inhibited at MIC,[11]; MIC 0.125 µg/mL,49
same,Cumulative % of strains inhibited at MIC,[11]; MIC 0.5 µg/mL,100.0%
same,No. of strains inhibited at MIC,[11]; MIC 0.5 µg/mL,1
same,Cumulative % of strains inhibited at MIC,[11]; MIC […],98.6%
same,No. of strains inhibited at MIC,[11]; MIC […],5
same,Cumulative % of strains inhibited at MIC,[11]; MIC ≤[…],23.6%
same,No. of strains inhibited at MIC,[11]; MIC ≤[…],17
same,fold higher activity than comparator agents,[11]; E. faecalis clinical isolates,2- to 16 fold
same,MIC Range,"[11]; E. faecalis, 72 clinical isolates",≤0.0625 to 0.5 µg/mL
same,MIC50,[11]; [14],0.125 µg/mL
same,MIC90,[11]; [14],0.125 µg/mL
same,MIC,[12],0.031 µg/mL
same,MIC,MRSA (13B262),0.5 µg/mL
same,MIC50,"[13]; Glaesserella parasuis, H. parasuis, 34 clinical isolates, read-out: MIC50",0.5 µg/mL
same,MIC90,"[13]; Glaesserella parasuis, H. parasuis, 34 clinical isolates, read-out: MIC90",2 µg/mL
same,Cumulative % of strains inhibited at MIC,[13]; MIC 0.125 µg/mL,17.6%
same,No. of strains inhibited at MIC,[13]; MIC 0.125 µg/mL,1
same,Cumulative % of strains inhibited at MIC,[13]; MIC 0.5 µg/mL,47.1%
same,No. of strains inhibited at MIC,[13]; MIC 0.5 µg/mL,6
same,Cumulative % of strains inhibited at MIC,[13]; MIC 1 µg/mL,67.6%
same,No. of strains inhibited at MIC,[13]; MIC 1 µg/mL,7
same,Cumulative % of strains inhibited at MIC,[13]; MIC 2 µg/mL,97.1%
same,No. of strains inhibited at MIC,[13]; MIC 2 µg/mL,10
same,Cumulative % of strains inhibited at MIC,[13]; MIC 4 µg/mL,100.0%
same,No. of strains inhibited at MIC,[13]; MIC 4 µg/mL,1
same,Cumulative % of strains inhibited at MIC,[13]; MIC […],29.4%
same,No. of strains inhibited at MIC,[13]; MIC […],4
same,Cumulative % of strains inhibited at MIC,[13]; MIC ≤[…],14.7%
same,No. of strains inhibited at MIC,[13]; MIC ≤[…],5
same,MIC Range,"[13]; H. parasuis, 34 clinical isolates",≤0.0625 to 4 µg/mL
